Assay results as given in BindingDB's records for doi:10.1016/s0960-894x(99)00210-3 (Tartu University, 1999).

Experiment: Inhibitory activity against Protein kinase C beta isoform (PKC) from pig spleen.

Row | SMILES | IC50
1 | N=C(N)NCCC[C@H](NC(=O)[C@H](CCCNC(=N)N)NC(=O)[C@H](CCCNC(=N)N)NC(=O)[C@H](CCCNC(=N)N)NC(=O)[C@H](CCCNC(=N)N)NC(=O)[C@H](CCCNC(=N)N)NC(=O)CCNC(=O)[C@H]1OC(n2cnc3c(N)ncnc32)[C@H](O)[C@@H]1O)C(=O)O (stereo partly specified) | 3000 nM
2 | N=C(N)NCCC[C@H](NC(=O)[C@H](CCCNC(=N)N)NC(=O)[C@H](CCCNC(=N)N)NC(=O)[C@H](CCCNC(=N)N)NC(=O)[C@H](CCCNC(=N)N)NC(=O)[C@H](CCCNC(=N)N)NC(=O)CCCNC(=O)[C@H]1OC(n2cnc3c(N)ncnc32)[C@H](O)[C@@H]1O)C(=O)O (stereo partly specified) | 1500 nM
3 | C[C@H](NC(=O)C[C@H](NC(=O)C[C@H](NC(=O)[C@H]1O[C@@H](n2cnc3c(N)ncnc32)[C@H](O)[C@@H]1O)C(=O)O)C(=O)O)C(=O)N[C@@H](CCCNC(=N)N)C(=O)N[C@@H](CCCNC(=N)N)C(=O)N[C@@H](CCCNC(=N)N)C(=O)N[C@@H](CCCNC(=N)N)C(=O)N[C@@H](CCCNC(=N)N)C(=O)N[C@@H](CCCNC(=N)N)C(=O)O | 27000 nM
4 | N=C(N)NCCC[C@H](NC(=O)[C@H](CCCNC(=N)N)NC(=O)[C@H](CCCNC(=N)N)NC(=O)[C@H](CCCNC(=N)N)NC(=O)[C@H](CCCNC(=N)N)NC(=O)[C@H](CCCNC(=N)N)NC(=O)CNC(=O)[C@H]1OC(n2cnc3c(N)ncnc32)[C@H](O)[C@@H]1O)C(=O)O (stereo partly specified) | 10000 nM
5 | C[C@H](NC(=O)CCNC(=O)CCNC(=O)[C@H]1OC(n2cnc3c(N)ncnc32)[C@H](O)[C@@H]1O)C(=O)N[C@@H](CCCNC(=N)N)C(=O)N[C@@H](CCCNC(=N)N)C(=O)N[C@@H](CCCNC(=N)N)C(=O)N[C@@H](CCCNC(=N)N)C(=O)N[C@@H](CCCNC(=N)N)C(=O)N[C@@H](CCCNC(=N)N)C(=O)O (stereo partly specified) | 2800 nM
6 | CC(=O)NCCCCCC(=O)N[C@@H](CCCN=C(N)N)C(=O)N[C@@H](CCCNC(=N)N)C(=O)N[C@@H](CCCNC(=N)N)C(=O)N[C@@H](CCCNC(=N)N)C(=O)N[C@@H](CCCNC(=N)N)C(=O)N[C@@H](CCCN=C(N)N)C(=O)O [(R)-2-{(R)-2-[2-((R)-2-{(R)-2-[2-(6-Acetylamino-hexanoylamino)-5-guanidino-pentanoylamino]-5-guanidino-pentanoylamino}-5-guanidino-pentanoylamino)-5-guanidino-pentanoylamino]-5-guanidino-pentanoylamino}-5-guanidino-pentanoic acid] | > 100000 nM
